# From ChEMBL document CHEMBL1142055, “Quinolinium salt as a potent inhibitor of lymphocyte apoptosis” (Bioorg Med Chem Lett, 2005)
# pEC50: −log10 of the molar value.
# Species: Mus musculus
# Test: Effective concentration by cytoprotection activity on glucocorticoid-induced apoptosis in murine thymocytes was determined in vitro
# Type: functional
row,pEC50,SMILES
1,6.55,CO/N=C(/C[n+]1ccccc1)c1ccc(N2CCCC2)cc1
2,7.89,CO/N=C(/C[n+]1cccc2ccccc21)c1ccc(N2CCCC2)cc1
3,5.36,Cc1ccc(C(=O)Cn2c3c(sc2=N)CCCC3)cc1
4,< 5.00,Cc1ccc(C(=O)Cn2c(=O)ccc3ccccc32)cc1
5,6.46,CO/N=C(/C[n+]1cccc2ccccc21)c1ccc(C)cc1
6,< 5.00,CO/N=C(/Cn1c(=O)ccc2ccccc21)c1ccc(N2CCCC2)cc1
7,5.60,Cc1ccc(-c2cn3c4c(sc3n2)CCCC4)cc1
8,5.29,CO/N=C(/C[n+]1ccccc1)c1ccc(C)cc1
9,< 5.00,Cc1ccc(C(=O)C[n+]2cccc3ccccc32)cc1
10,< 5.00,Cc1ccc(C(=O)C[n+]2ccccc2)cc1
11,< 5.00,CO/N=C(/Cn1c(=O)ccc2ccccc21)c1ccc(C)cc1
